Source: patent EP2179732A1, “PHARMACEUTICAL COMPOSITION COMBINING AN ENZYME HMG-COA REDUCTASE INHIBITING AGENT AND A GASTROINTESTINAL LIPASE ENZYME INHIBITING AGENT” (Espinosa Abdala, Leopoldo de Jesús, priority 2007, dated 2008)
Marks after values point to notes of the source that are not given here.

Key:
[1] = system: obese patients with hypercholesterolemia and hypertriglyceridemia; assay: Clinical comparative study of Orlistat, Atorvastatin and combination: lipid profile; assay type: in vivo; conditions: for C-HDL Baseline change at 1 year / C-LDL Baseline change at 1 year / CT Baseline change at 1 year / TG Baseline change at 1 year: 1 Year versus baseline; for C-HDL / C-LDL / CT (Total Cholesterol) / TG (Triglycerides): average (SD)
Procedure: (§1) Methods. Selected patients were obese with a Body Mass Index (IMC) >30 Kg/m^2; with border (Total cholesterol 200-240 mg./dL.) or severe (Total cholesterol ≥ 240 mg./dL.) hypercholesterolemia; with hypertriglyceridemia (≥ 150 mg./dL.); normal pressure patients (systolic pressure <140 mm Hg and diastolic pressure < 90 mm Hg).
(§2) Patients were >50 years old. Patients were randomized for receiving in Group 1: Orlistat 1 capsule (120 mg.) in main meal.
(§3) Compliance with treatment was assessed by counting capsules and with follow-up visits every 3 months. Total cholesterol, LDL cholesterol, HDL Cholesterol, Triglycerides in serum and blood pressure during baseline visit were assessed, and at 6 months and 12 months of treatment. Waist index was assessed.

[2] = system: obese patients with hypercholesterolemia and hypertriglyceridemia; assay: Clinical comparative study: body weight (body mass index, waist circumference reduction, weight loss); assay type: in vivo
Procedure: as §1, §2, §3

[3] = system: obese patients with hypercholesterolemia and hypertriglyceridemia; assay: Clinical comparative study: blood pressure; assay type: in vivo
Procedure: as §1, §2, §3

[4] = system: obese patients with hypercholesterolemia and hypertriglyceridemia; conditions: human, in vivo
Procedure: as §1, §2, §3

[5] = dose-response study; cited from earlier work
plasma proteins = conditions: in vitro; lipoproteins and albumin main attachment proteins; cited from earlier work
[6] = dosage of 120 mg once a day; cited from earlier work
[7] = cited from earlier work

Row | Structure (SMILES) | C-HDL Baseline change at 1 year [1] | C-LDL Baseline change at 1 year [1] | CT Baseline change at 1 year [1] | TG Baseline change at 1 year [1] | C-HDL ([1]; 1 year of treatment) | C-LDL ([1]; 1 year of treatment) | CT (Total Cholesterol) ([1]; 1 year of treatment) | TG (Triglycerides) ([1]; 1 year of treatment) | C-HDL ([1]; 6 months of treatment) | C-LDL ([1]; 6 months of treatment) | CT (Total Cholesterol) ([1]; 6 months of treatment) | TG (Triglycerides) ([1]; 6 months of treatment) | IMC Baseline changes ([2]; 1 Year versus baseline) | PP Baseline changes ([2]; 1 Year versus baseline) | RCC Baseline changes ([2]; 1 Year versus baseline) | PP (Weight loss) ([2]; 1 year) | RCC (Waist circumference reduction) ([2]; 1 year) | PP (Weight loss) ([2]; 6 Months) | RCC (Waist circumference reduction) ([2]; 6 Months) | IMC Baseline changes ([2]; 6 Months versus baseline) | also measured
1 | CC(C)c1c(C(=O)Nc2ccccc2)c(-c2ccccc2)c(-c2ccc(F)cc2)n1CC[C@@H](O)C[C@@H](O)CC(=O)O [Atorvastatin] | 12.3** % | -33.0** % | -27.0** % | -25.0* % | 46 (5) mg./dL. | 104 (23) mg./dL. | 184 (23) mg./dL. | 125 (28) mg./dL. | 44 (5) mg./dL. | 151 (22)* mg./dL. | 191 (21)* mg./dL. | 126 (29) mg./dL. | -4.1* % | -4.6* % | -3.7* % | -7.3 (1.2) | -3.1 (1.1) cm. | -3.7 (1.1) | -1.5 (0.7) cm. | -2.3% | PP Baseline changes ([2]; 6 Months versus baseline): -3.7%; RCC Baseline changes ([2]; 6 Months versus baseline): -1.5%; Diastolic Baseline changes ([3]; 1 Year versus baseline): -7.0* %; Systolic Baseline changes ([3]; 1 Year versus baseline): -6.0* %; Diastolic blood pressure [PAD] ([3]; 1 year): 83 (3) mm. Hg; Systolic blood pressure [PAS] ([3]; 1 year): 127 (4) mm. Hg; Diastolic blood pressure [PAD] ([3]; 6 Months): 85 (4) mm. Hg; Systolic blood pressure [PAS] ([3]; 6 Months): 130 (4) mm. Hg; Diastolic Baseline changes ([3]; 6 Months versus baseline): -5.0%; Systolic Baseline changes ([3]; 6 Months versus baseline): -3.0%; alterations as to serum transaminases or in creatinphosphokinase activity [4]: did not show alterations; reduce LDL cholesterol [5]: 41-61%; reduce apolipoprotein B [5]: 34-50%; reduce total cholesterol [5]: 30-46%; reduce triglycerides [5]: 14-33%
2 | CCCCCCCCCCC[C@@H](C[C@@H]1OC(=O)[C@H]1CCCCCC)OC(=O)[C@H](CC(C)C)NC=O [Orlistat] | 4.8% | -17.0* % | -13.0* % | -30-3** % | 45 (6) mg./dL. | 152 (23) mg./dL. | 211 (25) mg./dL. | 100 (22) mg./dL. | 44 (5) mg./dL. | 163 (21) mg./dL. | 232 (22) mg./dL. | 120 (24) mg./dL. | -6.2** % | -4.6** % | -4.6* % | -6.6 (1.5) | -4.1 (1.1) cm. | -4.0 (1.2) | -2.1 (0.7) cm. | -3.2* % | IMC (Body Mass Index) ([2]; 1 year): 27.3 (1.3) Kg./M^2; IMC (Body Mass Index) ([2]; 6 Months): 30.3 (1.4) Kg./M^2; PP Baseline changes ([2]; 6 Months versus baseline): -4.* %; RCC Baseline changes ([2]; 6 Months versus baseline): -2.1* %; Diastolic Baseline changes ([3]; 1 Year versus baseline): -8.0* %; Systolic Baseline changes ([3]; 1 Year versus baseline): -16.0* %; Diastolic blood pressure [PAD] ([3]; 1 year): 82 (3) mm. Hg; Systolic blood pressure [PAS] ([3]; 1 year): 128 (3) mm. Hg; Diastolic blood pressure [PAD] ([3]; 6 Months): 82 (3) mm. Hg; Systolic blood pressure [PAS] ([3]; 6 Months): 130 (3) mm. Hg; Diastolic Baseline changes ([3]; 6 Months versus baseline): -8.0%; Systolic Baseline changes ([3]; 6 Months versus baseline): -6.0%; adverse events [4]: Two patients from Group 1 showed adverse gastrointestinal events (fecal urgency); attached to plasma proteins (plasma proteins): > 99%; maximum inhibition of fatty absorption [6]: 30%; intact Orlistat concentrations ([7]; at 8 hours after oral administration, not detectable): < 5 ng/mL; two main metabolites M1 and M3 as share of total plasma concentration ([7]; of the minimal systemically absorbed fraction of the dose): about 42%
